Reference: US20250197460A1, “USE OF LACTOBACILLUS PARACASEI GM-080 AND PEPTIDES THEREOF FOR ANTIMICROBIA” (GenMont Biotech Incorporation, priority 2023, published 2025)

Legend:
[1] = tested on: Streptococcus pyogenes NZ131; experiment: Antimicrobial peptide co-culture, viable bacteria in a dish coating manner; assay type: cell-based; details: 1-200 mg/mL
Description: (§1) The powder was diluted with DMSO to different concentrations. Subsequently, after being co-cultured with pathogenic streptococcus for different time periods, it was confirmed whether the antimicrobial peptides were the antimicrobial peptide of GM-080 capable of inhibiting Streptococcus pyogenes NZ131 by OD6oonm or in a dish coating manner simultaneously.

[2] = tested on: Streptococcus pyogenes NZ131; experiment: Antimicrobial peptide co-culture with Streptococcus pyogenes (OD); assay type: cell-based
Description: as §1

MELLNEKELAHVIGGKRKCPKTPFDNTPGAWFAHLILGC (GM-080; listed as Lactobacillus paracasei) [AMP-01026, antimicrobial peptide of Lactobacillus paracasei GM-080, synthesized]
inhibition of growth of Streptococcus pyogenes in a dish coating manner (viable bacteria) ([1]; co-cultured for 2 or 5 hours, FIG. 9A): significantly inhibit the growth | inhibition of Streptococcus pyogenes in a co-culture manner ([2]; 10-200 mg/mL, from 2-3 hours of co-culture, FIG. 8A): good inhibition effect

MKQFDEQKMVNMSDEELLEFIGGDSIRDVSPTFNKIRRWFDGLFK (GM-080; listed as Lactobacillus paracasei) [AMP-01240, second predicted antimicrobial peptide segment of GM-080, synthesized]
inhibition of growth of Streptococcus pyogenes in a dish coating manner ([1]; FIG. 9B): not capable of inhibiting the growth | inhibition of growth of Streptococcus pyogenes in a co-culture manner ([2]; 1-200 mg/mL, FIG. 8B): not capable of inhibiting the growth
